Measurements from patent publication US20050171195A1, “P2X7 antagonists for treating neuropathic pain” (priority 2003, published 2005).

Target: T1, P2X7 receptor (Homo sapiens, UniProt Q99572)
T1 construct: endogenous in cells; host or cells: THP-1 cells
T1 sequence (Q99572 1-595): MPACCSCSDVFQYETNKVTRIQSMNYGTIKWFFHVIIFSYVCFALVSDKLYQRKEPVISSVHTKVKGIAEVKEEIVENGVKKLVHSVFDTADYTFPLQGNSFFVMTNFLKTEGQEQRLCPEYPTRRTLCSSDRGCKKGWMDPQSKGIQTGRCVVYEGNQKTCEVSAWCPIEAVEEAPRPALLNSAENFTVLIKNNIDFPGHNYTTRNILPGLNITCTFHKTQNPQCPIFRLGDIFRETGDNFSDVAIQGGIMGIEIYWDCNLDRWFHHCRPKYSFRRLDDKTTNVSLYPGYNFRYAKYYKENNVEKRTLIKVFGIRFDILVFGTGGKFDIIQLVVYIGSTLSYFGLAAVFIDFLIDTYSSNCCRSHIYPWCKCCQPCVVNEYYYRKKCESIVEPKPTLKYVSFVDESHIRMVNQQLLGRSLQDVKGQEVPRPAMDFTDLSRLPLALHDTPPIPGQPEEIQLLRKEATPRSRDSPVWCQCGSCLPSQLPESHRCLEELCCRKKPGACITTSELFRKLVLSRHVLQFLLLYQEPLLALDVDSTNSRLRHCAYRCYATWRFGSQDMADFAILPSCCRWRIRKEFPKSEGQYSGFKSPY
Assay: P2X7 mediated pore formation (YO-PRO dye uptake, FLIPR)
Type: cell-based
Conditions: THP-1 cells
Method: P2X7 Mediated Pore Formation. Activation of the P2X7 receptor induces nonspecific pore formation and eventually cell lysis (Verhoef et al., The Journal of Immunology, Vol. 170, pages 5728-5738, 2003). Accordingly, the inhibitory activity of the antagonists of the present invention was determined by their capacity to inhibit the agonist-induced pore formation using the fluorescent dye YO-PRO (MW=629) and Fluorescence Imaging Plate Reader (FLIPR, Molecular Devices, Sunnydale, Calif.) in THP-1 cells. […] The YO-PRO iodide dye (1 mM in DMSO) was diluted to a final concentration of 2 μM in PBS (w/o Mg^2+ or Ca^2+) and then placed on the cells immediately prior to the agonist addition. Since the THP-1 cells are a non-adherent cell line, the cells were washed in PBS and loaded with the dye in a conical tube prior to spinning the cells onto poly-lysine-coated black-walled 96-well plates, which were utilized to reduce light scattering. […] The intensity of the fluorescence was captured by the CCD camera every 15 seconds for the first 10 minutes of agonist exposure followed by every 20 seconds for an additional 50 minutes with the data being digitally transferred to an interfaced PC. The exposure setting of the camera was 0.25 sec with an f-stop setting of 2. […]

In the case of benzoylbenzoic ATP [BzATP], the “EC70 value for agonist activation” value was 50 µM.

Test system: not given
Assay: not given
Conditions: not given

First: CC(C)(C)C(NC(=O)Cc1ccc2ccccc2c1)NC(=NC#N)Nc1cccc2ncccc12 (centres unmarked) [Example 36, N-(1-{[(cyanoimino)(5-quinolinylamino)methyl]amino}-2,2-dimethylpropyl)-2-(2-naphthyl)acetamide]
Second: CC(C)(C)C(NC(=O)Cc1ccc2cccnc2c1)NC(=NC#N)Nc1cccc2ncccc12 (centres unmarked) [Example 39, N-(1-{[(cyanoimino)(5-quinolinylamino)methyl]amino}-2,2-dimethylpropyl)-2-(7-quinolinyl)acetamide]
The melting point of the first is higher: 200 to 201 °C for the first, 147 to 148 °C for the second.

First: CCSc1ccc(CC(=O)NC(NC(=NC#N)Nc2cccc3ncccc23)C(C)(C)C)cc1 (centres unmarked) [Example 37, N-(1-{[(cyanoimino)(5-quinolinylamino)methyl]amino}-2,2-dimethylpropyl)-2-[4-(ethylthio)phenyl]acetamide]
Second: CC(C)(C)C(NC(=O)Cc1ccc(C#N)cc1)NC(=NC#N)Nc1cccc2ncccc12 (centres unmarked) [Example 41, N-(1-{[(cyanoimino)(5-quinolinylamino)methyl]amino}-2,2-dimethylpropyl)-2-(4-cyanophenyl)acetamide]
The melting point of the first is lower: 189 to 190 °C for the first, 194.5 to 195.5 °C for the second.

First: CC(C)(C)C(NC(=O)Cc1ccc2c(c1)OCCO2)NC(=NC#N)Nc1cccc2ncccc12 (centres unmarked) [Example 38, N-(1-{[(cyanoimino)(5-quinolinylamino)methyl]amino}-2,2-dimethylpropyl)-2-(2,3-dihydro-1,4-benzodioxin-6-yl)acetamide]
Second: CC(C)(C)C(NC(=O)Cc1ccc2ncccc2c1)NC(=NC#N)Nc1cccc2ncccc12 (centres unmarked) [Example 40, N-(1-{[(cyanoimino)(5-quinolinylamino)methyl]amino}-2,2-dimethylpropyl)-2-(6-quinolinyl)acetamide]
The melting point of the first is higher: 191 to 192 °C for the first, 150 to 151 °C for the second.

First: CC(C)(C)C(NC(=O)CCCc1cccnc1)NC(=NC#N)Nc1cccc2ncccc12 (centres unmarked) [Example 42, N-(1-{[(cyanoimino)(5-quinolinylamino)methyl]amino}-2,2-dimethylpropyl)-4-(3-pyridinyl)butanamide]
Second: Cc1ccc2c(NC(=NC#N)NC(NC(=O)Cc3ccc(Cl)cc3)C(C)(C)C)cccc2n1 (centres unmarked) [Example 44, 2-(4-chlorophenyl)-N-[1-({(cyanoimino)[(2-methyl-5-quinolinyl)amino]methyl}amino)-2,2-dimethylpropyl]acetamide]
The melting point of the first is lower: 181 to 182 °C for the first, 198 to 199 °C for the second.

First: CN1CCCc2c(NC(=NC#N)NC(NC(=O)Cc3ccc(Cl)cc3)C(C)(C)C)cccc21 (centres unmarked) [Example 43, 2-(4-chlorophenyl)-N-[1-({(cyanoimino)[(1-methyl-1,2,3,4-tetrahydro-5-quinolinyl)amino]methyl}amino)-2,2-dimethylpropyl]acetamide]
Second: CC(C)(C)C(NC(=O)Cc1ccc(Cl)cc1)NC(=NC#N)Nc1cccc2cnsc12 (centres unmarked) [Example 45, N-(1-{[(1,2-benzisothiazol-7-ylamino)(cyanoimino)methyl]amino}-2,2-dimethylpropyl)-2-(4-chlorophenyl)acetamide]
The melting point of the first is lower: 114 to 117 °C for the first, 135 to 137 °C for the second.

First: COc1cc(OC)cc(C(=O)NC(NC(=NC#N)Nc2cccnc2OC)C(C)(Cl)Cl)c1 (centres unmarked) [Example 50, N-[2,2-dichloro-1-({(cyanoimino)[(2-methoxy-3-pyridinyl)amino]methyl}amino)propyl]-3,5-dimethoxybenzamide]
Second: COc1ccc(CC(=O)NC(NC(=NC#N)Nc2cccnc2OC)C(C)(Cl)Cl)cc1OC (centres unmarked) [Example 54, N-[2,2-dichloro-1-({(cyanoimino)[(2-methoxy-3-pyridinyl)amino]methyl}amino)propyl]-2-(3,4-dimethoxyphenyl)acetamide]
The melting point of the first is higher: 198 to 199 °C for the first, 188 to 190 °C for the second.

In the case of `COc1ccc(NC(=NC#N)NC(NC(=O)c2ccc(Cl)cc2)C(C)(Cl)Cl)c(OC)n1` (centres unmarked) [Example 51, 4-chloro-N-[2,2-dichloro-1-({(cyanoimino)[(2,6-dimethoxy-3-pyridinyl)amino]methyl}amino)propyl]benzamide], the melting point was 162 to 163 °C.
